Data set [1] can be described thus: Skin phototoxicity after intravenous injection and 670 nm laser. Format: in vivo, Balb/c mice. Particulars: 2 mg/kg (equiv. of Ce6) iv, 670 nm 50 mW/cm2 5 min 1 h after injection; 2nd and 3rd days. Here is the method:
One hour after injection, a near-infrared (670 nm) laser (50 mW/cm^2) was irradiated for 5 minutes.

Data set [2] in a line: Singlet oxygen generation (SOSG fluorescence) under 670 nm laser. Format: physicochemical. As to conditions: PBS with 1% Tween 20, 5 μM based on Ce6, 670 nm 50 mW/cm2, 0-120 s. The protocol: All three solutions contained 1 μM SOSG. The fluorescence intensity of SOSG (Ex(excitation)/Em(emission): 504 nm/525 nm) was measured by irradiating a laser (670 nm, 50 mW/cm^2) every 30 seconds from 0 to 120 seconds.

For the substance “(17S,18S)-18-(2-carboxyethyl)-20-(carboxymethyl)-12-ethenyl-7-ethyl-3,8,13,17-tetramethyl-17,18,22,23-tetrahydroporphyrin-2-carboxylic acid [Ce6]”, the “skin phototoxicity (erythema)” value in data set [1] is listed as “erythema occurred”. In addition, the “SOSG fluorescence intensity (singlet oxygen generation)” value in data set [2] is reported as “tendency to increase similarly to each other”.

The record behind these values is patent US20230210888A1, “PHOTOTHERANOSTIC NANOAGENTS WITH EXCELLENT ATHEROSCLEROTIC PLAQUE-TARGETING AND PLAQUE-PENETRATING PROPERTIES, AND USE THEREOF” (Korea University Research and Business Foundation, priority 2021, published 2023).
